Assay results: US20100310541A1, “Compositions and Methods for Reducing the Toxicity of Certain Toxins” (IRONWOOD PHARMACEUTICALS, INC., priority 2007, published 2010)
Entries after “also recorded” stand apart in the source; their conditions may differ.

Biological target: Escherichia coli heat stable enterotoxin (STa; SEQ ID NO: 1) (Escherichia coli, UniProt P07965)
Assay type: biochemical
Settings: pH 8

O[C@H](CS)[C@H](O)CS (racemic) [DTT, dithiothreitol]
effect on SEQ ID NO:1 (LC/MS, FIG. 3): no visible effect
reduction of SEQ ID NO:1 disulfide bonds (FIG. 5): a small amount of fully reduced peptide; also recorded: complete reduction
reduction of native SEQ ID NO:1 based on peak area (FIG. 4): 47%
